{"source": "patent US7910746B2", "about": "“Haloalkyl carboxamides” (Bayer CropScience AG, priority 2004, dated 2011)", "key": {"Venturia inaequalis": {"tested_on": "Venturia inaequalis", "assay": "Venturia test (apple)/protective", "assay_type": "in vivo", "details": "protective, application rate 100 g/ha, evaluation ten days after inoculation", "procedure": "Venturia Test (Apple)/Protective Solvent: • 24.5 parts by weight acetone • 24.5 parts by weight dimethyl acetamide Emulsifier: 1 part by weight alkyl aryl polyglycol ether To produce an appropriate active ingredient preparation, one part by weight of the active substance is mixed with the specified quantities of solvent and emulsifying agent, and the concentrate is diluted with water to the desired concentration. Young plants are sprayed with the active ingredient preparation at the specified application rate to test the effectiveness of protection. After the sprayed coating has dried, the plants are inoculated with an aqueous conidia suspension of the apple scab pathogen Venturia inaequalis and are then kept in an incubator at 20° C. and 100% relatively humidity for one day. Then the plants are placed in the greenhouse at about 21° C. with relative humidity of about 90%. The evaluation is performed ten days after the inoculation. A degree of effectiveness rating of 0% corresponds to the control, with 100% indicating no infestation observed."}, "Alternaria solani": {"tested_on": "Alternaria solani", "assay": "Alternaria test (tomato)/protective", "assay_type": "in vivo", "details": "protective, application rate 750 g/ha, evaluation seven days after inoculation", "procedure": "Alternaria Test (Tomato)/Protective Solvent: 49 parts by weight N,N-dimethyl formamide Emulsifier: 1 part by weight alkyl aryl polyglycol ether To produce an appropriate active ingredient preparation, one part by weight of the active substance is mixed with the specified quantities of solvent and emulsifying agent, and the concentrate is diluted with water to the desired concentration. Young tomato plants are sprayed with the active ingredient preparation at the specified application rate to test the effectiveness of protection. One day after treatment, the plants are inoculated with a spore suspension of Alternaria solani and are kept for 24 hours at 100% relatively humidity and 20° C. Subsequently, the plants are kept at 96% relatively humidity and a temperature of 20° C. The evaluation is performed seven days after the inoculation. A degree of effectiveness rating of 0% corresponds to the control, with 100% indicating no infestation observed."}, "[1]": {"assay": "log P by HPLC on reverse phase column (C18), acid range", "assay_type": "physicochemical", "details": "pH 2.3, HPLC C18, 43° C.", "procedure": "The specified log P values are determined by HPLC on a reverse phase column (C18) in accordance with EEC Directive 79/831 Annex V.A8. Temperature: 43° C. Eluents for the measurement in the acid range (pH 2.3): 0.1% aqueous phosphoric acid, acetonitrile; linearer gradient of 10% acetonitrile to 90% acetonitrile. Calibration is performed with unbranched alkyl-2-ones (with 3 to 16 carbon atoms) with known log P values (determination of the log P values based on retention times by linear interpolation between two sequential alkyl ketones)."}, "Sphaerotheca fuliginea": {"tested_on": "Sphaerotheca fuliginea", "assay": "Sphaerotheca test (cucumber)/protective", "assay_type": "in vivo", "details": "protective, application rate 100 g/ha, evaluation seven days after inoculation", "procedure": "Sphaerotheca Test (Cucumber)/Protective Solvent: • 24.5 parts by weight acetone • 24.5 parts by weight dimethyl acetamide Emulsifier: 1 part by weight alkyl aryl polyglycol ether To produce an appropriate active ingredient preparation, one part by weight of the active substance is mixed with the specified quantities of solvent and emulsifying agent, and the concentrate is diluted with water to the desired concentration. Young plants are sprayed with the active ingredient preparation at the specified application rate to test the effectiveness of protection. After the sprayed coating has dried, the plants are inoculated with an aqueous spore suspension of Sphaerotheca fuliginea. Then the plants are placed in the greenhouse at about 23° C. with relative humidity of about 70%. The evaluation is performed seven days after the inoculation. A degree of effectiveness rating of 0% corresponds to the control, with 100% indicating no infestation observed."}, "Botrytis cinerea": {"tested_on": "Botrytis cinerea", "assay": "Botrytis test (bean)/protective", "assay_type": "in vivo", "details": "protective, application rate 500 g/ha, evaluation two days after inoculation", "procedure": "Botrytis Test (Bean)/Protective Solvent: • 24.5 parts by weight acetone • 24.5 parts by weight dimethyl acetamide Emulsifier: 1 part by weight alkyl aryl polyglycol ether To produce an appropriate active ingredient preparation, one part by weight of the active substance is mixed with the specified quantities of solvent and emulsifying agent, and the concentrate is diluted with water to the desired concentration. Young plants are sprayed with the active ingredient preparation at the specified application rate to test the effectiveness of protection. After the sprayed coating has dried, two small pieces of agar with cultured Botrytis cinerea are placed on each leaf. The inoculated plants are placed in a darkened chamber at about 20° C. and 100% relatively humidity. Two days after the inoculation, the size of the infestation spots on the leaves is evaluated. A degree of effectiveness rating of 0% corresponds to the control, with 100% indicating no infestation observed."}, "Puccinia recondita": {"tested_on": "Puccinia recondita", "assay": "Puccinia test (wheat)/protective", "assay_type": "in vivo", "details": "protective, application rate 500 g/ha, evaluation ten days after inoculation", "procedure": "Puccinia Test (Wheat)/Protective Solvent: 50 parts by weight N,N-dimethyl acetamide Emulsifier: 1 part by weight alkyl aryl polyglycol ether To produce an appropriate active ingredient preparation, one part by weight of the active substance is mixed with the specified quantities of solvent and emulsifying agent, and the concentrate is diluted with water to the desired concentration. Young plants are sprayed with the active ingredient preparation at the specified application rate to test the effectiveness of protection. After the sprayed coating has dried, the plants are sprayed with a conidia suspension of Puccinia recondita. The plants are kept in an incubator at 20° C. and 100% relatively humidity for 48 hours. Then the plants are placed in a greenhouse at a temperature of about 20° C. and a relatively humidity of 80%, in order to promote the development of rust spots. The evaluation is performed ten days after the inoculation. A degree of effectiveness rating of 0% corresponds to the control, with 100% indicating no infestation observed."}}, "data": [{"smiles": "CC(CCc1cc(Cl)ccc1NC(=O)c1cn(C)nc1C(F)F)C(F)(F)F", "note": "(stereo not drawn)", "values": [{"measurement": "Degree of effectiveness in %", "setting": "Venturia inaequalis", "result": 93, "unit": "%"}]}, {"smiles": "Cc1nn(C)c(F)c1C(=O)Nc1ccc(Cl)cc1CCC(C)C(F)(F)F", "note": "(stereo not drawn)", "values": [{"measurement": "Degree of effectiveness in %", "setting": "Alternaria solani", "result": 90, "unit": "%"}]}, {"smiles": "CC(CCc1cc(Cl)ccc1NC(=O)c1ccccc1C(F)(F)F)C(F)(F)F", "note": "(stereo not drawn) [Example 1, N-[4-chloro-2-(4,4,4-trifluoro-3-methylbutyl)-phenyl]-2-trifluoromethylbenzamide]", "values": [{"measurement": "chromatographic logP", "setting": "[1]", "result": 4.08}]}, {"smiles": "CC(CCc1ccccc1NC(=O)c1cn(C)nc1C(F)F)C(F)(F)F", "note": "(stereo not drawn) [Example 2, 3-difluoromethyl-1-methyl-1H-pyrazole-4-carboxyic acid, [2-(4,4,4-trifluoro-3-methylbutyl)-phenyl]-amide]", "values": [{"measurement": "chromatographic logP", "setting": "[1]", "result": 2.93}]}, {"smiles": "CCC(Cl)CC(C)c1ccccc1NC(=O)c1c(C)nn(C)c1F", "note": "(stereo not drawn) [drawing 80]", "values": [{"measurement": "Degree of effectiveness in %", "setting": "Sphaerotheca fuliginea", "result": 95, "unit": "%"}]}, {"smiles": "CCC(Cl)CC(C)c1ccccc1NC(=O)c1cn(C)nc1C(F)F", "note": "(stereo not drawn) [drawing 81]", "values": [{"measurement": "Degree of effectiveness in %", "setting": "Sphaerotheca fuliginea", "result": 100, "unit": "%"}]}, {"smiles": "Cc1nn(C)c(F)c1C(=O)Nc1ccccc1CCC(C)C(F)(F)F", "note": "(stereo not drawn) [drawing 82]", "values": [{"measurement": "Degree of effectiveness in %", "setting": "Sphaerotheca fuliginea", "result": 100, "unit": "%"}]}, {"smiles": "CC(CCc1ccccc1NC(=O)c1cn(C)nc1C(F)F)C(F)(F)F", "note": "(stereo not drawn) [drawing 83]", "values": [{"measurement": "Degree of effectiveness in %", "setting": "Sphaerotheca fuliginea", "result": 98, "unit": "%"}]}, {"smiles": "CCC(Cl)CC(C)c1ccccc1NC(=O)c1c(C)nn(C)c1F", "note": "(stereo not drawn) [drawing 85]", "values": [{"measurement": "Degree of effectiveness in %", "setting": "Venturia inaequalis", "result": 100, "unit": "%"}]}, {"smiles": "CCC(Cl)CC(C)c1ccccc1NC(=O)c1cn(C)nc1C(F)F", "note": "(stereo not drawn) [drawing 86]", "values": [{"measurement": "Degree of effectiveness in %", "setting": "Venturia inaequalis", "result": 100, "unit": "%"}]}, {"smiles": "CC(CCc1ccccc1NC(=O)c1ccccc1I)C(F)(F)F", "note": "(stereo not drawn) [drawing 87]", "values": [{"measurement": "Degree of effectiveness in %", "setting": "Venturia inaequalis", "result": 94, "unit": "%"}]}, {"smiles": "Cc1nn(C)c(F)c1C(=O)Nc1ccccc1CCC(C)C(F)(F)F", "note": "(stereo not drawn) [drawing 88]", "values": [{"measurement": "Degree of effectiveness in %", "setting": "Venturia inaequalis", "result": 94, "unit": "%"}]}, {"smiles": "CC(CCc1ccccc1NC(=O)c1cn(C)nc1C(F)F)C(F)(F)F", "note": "(stereo not drawn) [drawing 89]", "values": [{"measurement": "Degree of effectiveness in %", "setting": "Venturia inaequalis", "result": 97, "unit": "%"}]}, {"smiles": "CCC(Cl)CC(C)c1ccccc1NC(=O)c1c(C)nn(C)c1F", "note": "(stereo not drawn) [drawing 90]", "values": [{"measurement": "Degree of effectiveness in %", "setting": "Botrytis cinerea", "result": 82, "unit": "%"}]}, {"smiles": "CCC(Cl)CC(C)c1ccccc1NC(=O)c1cn(C)nc1C(F)F", "note": "(stereo not drawn) [drawing 91]", "values": [{"measurement": "Degree of effectiveness in %", "setting": "Botrytis cinerea", "result": 100, "unit": "%"}]}, {"smiles": "CC(CCc1ccccc1NC(=O)c1cn(C)nc1C(F)F)C(F)(F)F", "note": "(stereo not drawn) [drawing 92]", "values": [{"measurement": "Degree of effectiveness in %", "setting": "Botrytis cinerea", "result": 99, "unit": "%"}]}, {"smiles": "CCC(Cl)CC(C)c1ccccc1NC(=O)c1cn(C)nc1C(F)F", "note": "(stereo not drawn) [drawing 93]", "values": [{"measurement": "Degree of effectiveness in %", "setting": "Puccinia recondita", "result": 100, "unit": "%"}]}, {"smiles": "CC(CCc1ccccc1NC(=O)c1ccccc1I)C(F)(F)F", "note": "(stereo not drawn) [drawing 94]", "values": [{"measurement": "Degree of effectiveness in %", "setting": "Puccinia recondita", "result": 100, "unit": "%"}]}, {"smiles": "CC(CCc1ccccc1NC(=O)c1cn(C)nc1C(F)F)C(F)(F)F", "note": "(stereo not drawn) [drawing 95]", "values": [{"measurement": "Degree of effectiveness in %", "setting": "Puccinia recondita", "result": 100, "unit": "%"}]}, {"smiles": "CCC(Cl)CC(C)c1ccccc1NC(=O)c1c(C)nn(C)c1F", "note": "(stereo not drawn) [drawing 97]", "values": [{"measurement": "Degree of effectiveness in %", "setting": "Alternaria solani", "result": 100, "unit": "%"}]}, {"smiles": "CCC(Cl)CC(C)c1ccccc1NC(=O)c1cn(C)nc1C(F)F", "note": "(stereo not drawn) [drawing 98]", "values": [{"measurement": "Degree of effectiveness in %", "setting": "Alternaria solani", "result": 95, "unit": "%"}]}]}
